These results are taken from paper PMC9569971, “New Oxazolo[5,4-d]pyrimidines as Potential Anticancer Agents: Their Design, Synthesis, and In Vitro Biological Activity Research” (International Journal of Molecular Sciences, 2022).

The nature of data set [1]: MTT viability assay, NHDF. Format: cell-based, human. Conditions: human, normal human dermal fibroblasts (NHDF), tested 1–500 µM. (In general: Tetrazolium assays rely on reduction of a dye to a coloured formazan, in cell work by metabolically active cells.)
Data set [2] is described as follows: MTT viability assay, L929. It counts as cell-based, murine. Conditions: mouse, L929 fibroblasts, tested 1–500 µM.
The next data set concerns Caspase-3. The experiment in a line: Human Caspase-3 (Active) ELISA Kit, HT29 lysate. It counts as cell-based. The settings on record: lysate of HT29 cells treated with 3g; SD ±3.03. The protocol: The test was performed on an HT29 colon adenocarcinoma cell line lysate treated with compound 3g. Cells from the HT29 line were harvested by centrifugation (non-adherent cells) and scraping from the culture flasks (adherent cells), and then the cells were washed twice with cold PBS. The supernatant was removed and discarded, and cell pellets were collected. The cell pellets were then lysed in a cell extraction container for 30 min on ice and […]. The lysate was transferred to microcentrifuge tubes and centrifuged at 13,000 rpm for 10 min at 4 °C. The supernatant was transferred to clean microcentrifuge tubes. Caspase-3 standard (active) was prepared from recombinant protein. The caspase-3 standard was reconstituted with the standard solvent solution at a concentration of 2.5 ng/mL. The contents were swirled and then left for 10 min to ensure complete dissolution. […]
In this method, a monoclonal capture antibody specific to caspase-3 (cleaved) was coated onto the wells of a 96-well plate. […] The absorbance at 450 nm was read for […] after the stop solution was added. […] Concentrations for unknown samples and controls were read from the standard curve. The intensity of the colored product was directly proportional to the concentration of the target protein present in the original specimen, and the optical density was read on a microplate reader. […]
For orientation: ELISA stands for enzyme-linked immunosorbent assay.

The test system of data set [3] is primary colon adenocarcinoma (HT29). Kind of data set: MTT viability assay, HT29. It counts as cell-based, human. The settings on record: for CC50: tested 1–500 µM.

As a reminder, the CC50 is the concentration that lowers cell viability or growth by half. On to `Cc1noc(N)c1-c1nc2c(NCCCN(C)C)ncnc2o1` [Compound 3g, 2-(5-Amino-3-methylisoxazol-4-yl)-7-N-[3-(N,N-dimethylamino)propyl]aminooxazolo[5,4-d]pyrimidine], for which the CC50 in data set [1] was 156 ± 15.5 µM; in data set [2], 83.7 ± 4.42 µM; in data set [3] (HT29, MTT), 58.4 ± 8.75 µM; in data set [3] (Homo sapiens, HT-29, HT29, MTT), 58.4 µM. Also, the Caspase-3 concentration in the data set with Caspase-3 was 12.27 [ng/mL]. The “SI (selectivity index)” value in data set [3] (CC50 NHDF / CC50 HT29) is recorded as 2.662.
